Values quoted from earlier work in US20110091452A1, “4,5-Dihydromacbecin Derivatives and Their Use in the Treatment of Cancer or B-Cell Malignancies” (priority 2006, published 2011).

How the values were obtained:
[1] = test system: Reverse transcriptase
[2] = biological target: terminal deoxynucleotidyl transferase (Homo sapiens, UniProt P04053)
[3] = biological target: Hsp90 (Homo sapiens, UniProt P07900)
[4] = test system: bacteria and fungi; conditions: in vitro
[5] = test system: protozoa

Chain of terminal deoxynucleotidyl transferase (P04053 whole entry, species assumed): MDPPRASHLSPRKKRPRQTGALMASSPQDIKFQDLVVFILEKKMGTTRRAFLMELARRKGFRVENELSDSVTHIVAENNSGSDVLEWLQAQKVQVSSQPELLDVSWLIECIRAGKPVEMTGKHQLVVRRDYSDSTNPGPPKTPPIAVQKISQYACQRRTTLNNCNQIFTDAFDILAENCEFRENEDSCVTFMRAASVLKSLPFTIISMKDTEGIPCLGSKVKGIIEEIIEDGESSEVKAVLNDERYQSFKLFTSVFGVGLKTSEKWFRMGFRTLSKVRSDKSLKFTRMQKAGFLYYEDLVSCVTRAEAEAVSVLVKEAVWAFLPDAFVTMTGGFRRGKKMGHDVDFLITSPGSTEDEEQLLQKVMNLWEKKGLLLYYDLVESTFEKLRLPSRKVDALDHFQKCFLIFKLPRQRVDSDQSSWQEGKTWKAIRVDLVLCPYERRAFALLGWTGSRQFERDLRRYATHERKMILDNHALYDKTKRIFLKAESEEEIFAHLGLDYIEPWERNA

Question: With CO[C@H]1[C@@H](OC)C[C@H](C)[C@@H](OC)C2=CC(=O)C=C(NC(=O)/C(C)=C/C=C\[C@H](C)[C@@H](OC(N)=O)/C(C)=C/[C@@H]1C)C2=O [macbecin] as the compound, how does the “inhibition of reverse transcriptase activity” value [1] read?
Answer: The value was “not inhibited”.

Question: And the “inhibition of terminal deoxynucleotidyl transferase activity” value [2]?
Answer: The value was “not inhibited”.

Question: What does the source list for CO[C@H]1C[C@H](C)Cc2cc(O)cc(c2)NC(=O)/C=C/CC[C@H](OC)[C@@H](OC(N)=O)/C(C)=C/[C@H](C)[C@H]1O [KOSN1559]?
Answer: binding affinity to Hsp90, greater than 17-AAG ([3]; relative to 17-AAG): 8 fold; binding affinity to Hsp90, greater than geldanamycin ([3]; relative to geldanamycin): 4 fold

Question: Which results are given for COC1=C2C[C@@H](C)C[C@H](OC)[C@H](O)[C@@H](C)/C=C(\C)[C@H](OC(N)=O)[C@@H](OC)/C=C\C=C(/C)C(=O)NC(=CC1=O)C2=O [geldanamycin]?
Answer: activity against bacteria and fungi [4]: weak activity; activity in vitro against protozoa [5]: strong activity
